{"source": "patent US20220168298A1", "about": "“CANCER TREATMENT” (Janssen Pharmaceutica NV, priority 2019, published 2022)", "key": {"[1]": {"conditions": "Regimen 2 6 mg continuous (n = 78)"}}, "note": "Read-outs that look alike come from different tables or passages of the source.", "procedure": "Study treatment is administered on 28-day cycles. Prior to interim analysis 1, there were 2 treatment regimens.\nSafety was assessed continuously by the investigator and based on medical review of AE reports and the results of vital sign measurements, physical examinations, clinical laboratory tests, ECOG performance status, and other safety evaluations.\nSafety data are presented for the safety population (N=207, enrolled between May 7, 2015, and Dec. 5, 2017), defined as patients who received at least 1 dose of study treatment.\nAn analysis was done on 99 NCT02365597 patients who received the dose regimen of 8 mg/day continuous (pharmacodynamically guided uptitrated to 9 mg/d per serum phosphate as described herein, Regimen 3) to explore efficacy among high-risk patients. […] High-risk patients are defined as patients meeting one or more of the following criteria: • age ≥75 years; • ECOG PS 2 (Eastern Cooperative Oncology Group Performance Status 2; Oken M, Creech R, Tormey D, et al. Toxicity and response criteria of the Eastern Cooperative Oncology Group. Am J Clin Oncol. 1982; 5:649-655) • hemoglobin <10 g/dL; • visceral metastases of the liver, lung and/or bone; • 2 or 3 Bellmunt risk factors (Bellmunt J, Choueiri T K, Fougeray R, et al: Prognostic factors in patients with advanced transitional cell carcinoma of the urothelial tract experiencing treatment failure with platinum-containing regimens.\nFinal analysis for NCT02365597 was conducted, per protocol 12 months after the last subject was enrolled."}
{"smiles": "COc1cc(OC)cc(N(CCNC(C)C)c2ccc3ncc(-c4cnn(C)c4)nc3c2)c1", "note": "[erdafitinib, N-(3,5-dimethoxyphenyl)-N′-(1-methylethyl)-N-[3-(1-methyl-1H-pyrazol-4-yl)quinoxalin-6-yl]ethane-1,2-diamine]", "values": [{"measurement": "TRAE Nail dystrophy, Grade ≥3", "setting": "[1]", "result": 0, "unit": "n"}, {"measurement": "TRAE Palmar-plantar erythrodysaesthesia syndrome, Grade ≥3", "setting": "[1]", "result": 0, "unit": "n"}, {"measurement": "TRAE Paronychia, Grade ≥3", "setting": "[1]", "result": 0, "unit": "n"}, {"measurement": "treatment-related deaths", "setting": "across all dose regimens (N = 207)", "result": "no treatment-related deaths"}, {"measurement": "treatment-related deaths", "setting": "final analysis, 101 patients", "result": "no treatment-related deaths"}, {"measurement": "CSR events resolved on the data cut-off date", "setting": "human, in vivo", "result": 63, "unit": "%"}, {"measurement": "CSR events resolved on the data cut-off date, n/N", "setting": "human, in vivo", "result": "17/27"}, {"measurement": "CSR events that were Grade 1 or 2", "setting": "human, in vivo", "result": 85, "unit": "%"}, {"measurement": "CSR events that were Grade 1 or 2, n/N", "setting": "human, in vivo", "result": "23/27"}, {"measurement": "Treatment discontinuation rates for adverse events", "setting": "human, in vivo", "result": "approximately 20%"}, {"measurement": "dosage discontinued for CSR", "setting": "human, in vivo", "result": 3, "unit": "patients"}, {"measurement": "dosage interrupted for CSR", "setting": "human, in vivo", "result": 8, "unit": "patients"}, {"measurement": "dosage reduced for CSR", "setting": "human, in vivo", "result": 13, "unit": "patients"}, {"measurement": "grade 3/4 serious adverse events proportions by subgroup, range", "setting": "human, in vivo", "result": "26.7-36.4%"}, {"measurement": "ongoing CSR events that were Grade 1", "setting": "human, in vivo", "result": 60, "unit": "%"}, {"measurement": "ongoing CSR events that were Grade 1, n/N", "setting": "human, in vivo", "result": "6/10"}, {"measurement": "patients reporting retinopathy", "setting": "human, in vivo", "result": 2, "unit": "patients"}, {"measurement": "patients reporting retinopathy, grade 2", "setting": "human, in vivo", "result": 1, "unit": "n"}, {"measurement": "patients reporting retinopathy, grade 3", "setting": "human, in vivo", "result": 1, "unit": "n"}, {"measurement": "patients with Central serous retinopathy (CSR) events", "setting": "human, in vivo", "result": 27, "unit": "%"}, {"measurement": "patients with Central serous retinopathy (CSR) events, n/N", "setting": "human, in vivo", "result": "27/101"}]}
